Assay: Binding energy by using the equation deltaG obsd = -RT ln KD
Format: ADME

| Molecule | Binding energy [kcal/mol] |
| --- | --- |
| O=P(O)(O)CCCCO | 3.3 |
| CO/C=C/C(N)C(=O)O (stereo not drawn) | 5.9 |
| O=C(O)Cc1ccccc1Oc1ccc(Cl)c(O)c1Cl | 8.7 |
| CN(C)CCOC(c1ccc(Cl)cc1)c1ccccn1 (stereo not drawn) [CARBINOXAMINE] | 12.3 |
| CCc1nc(N)nc(N)c1-c1ccc(Cl)cc1 [PYRIMETHAMINE] | 9.7 |
| CN(C)CCc1c[nH]c2ccc(O)cc12 [BUFOTENINE] | 9.4 |
| COc1cccc(OC)c1OCCNCC1COc2ccccc2O1 (stereo not drawn) | 12.9 |
| CCC1(CC=C2CCCCC2)C(=O)NC(=O)NC1=O | 8.4 |
| COC(=O)[C@@H]1[C@H]2C[C@H]3c4[nH]c5ccccc5c4CCN3C[C@@H]2CC[C@@H]1O [YOHIMBINE] | 11.9 |
| O=P(O)(O)OC[C@H]1O[C@](O)(CO)[C@@H](O)[C@@H]1O | 5.7 |
| O=c1[nH]c2ccccc2n1CCCN1CCC(n2c(=O)[nH]c3cc(Cl)ccc32)CC1 [DOMPERIDONE] | 13.8 |
| CNCCCN1c2ccccc2CCc2ccccc21 [DESIPRAMINE] | 12.2 |
| CCN [ETHYLAMINE] | 2.2 |
| CN1CCN2c3ccccc3Cc3ccccc3C2C1 (stereo not drawn) [MIANSERIN] | 12.5 |
| CN1Cc2c(N)cccc2C(c2ccccc2)C1 (stereo not drawn) [NOMIFENSINE] | 8.8 |
| NCCc1c[nH]c2ccc(O)cc12 [SEROTONIN] | 8.9 |
| NC(=O)C(N)Cc1ccccc1 (stereo not drawn) | 6.1 |
| CC[C@H](C)[C@H](N)C(=O)O [ISOLEUCINE] | 7.1 |
| CC[C@@H](CO)NC(=O)[C@@H]1C=C2c3cccc4c3c(cn4C)C[C@H]2N(C)C1 [METHYSERGIDE] | 12.3 |
| NCCc1c[nH]c2ccccc12 [TRYPTAMINE] | 7.9 |
| CC(Cc1ccccc1)NCCC(c1ccccc1)c1ccccc1 (stereo not drawn) [PRENYLAMINE] | 8.2 |
| BIBROCATHOL | 10.7 |
| CN(C)CCC=C1c2ccccc2CCc2ccccc21 [AMITRIPTYLINE] | 12.3 |
| O=C(O)Cc1ccccc1Oc1ccc(Cl)cc1Cl [FENCLOFENAC] | 9.2 |

| Molecule | Binding energy [kcal/mol] |
| --- | --- |
| Cc1nc(N)nc(N)c1-c1ccc(Cl)c(Cl)c1 [METOPRINE] | 12.3 |
| NC[C@H](O)c1ccc(O)c(O)c1 [NOREPINEPHRINE] | 12.1 |
| Clc1ccc(C(c2ccc(Cl)cc2)C(Cl)(Cl)Cl)cc1 [CHLOROPHENOTHANE] | 7.6 |
| OC[C@H]1O[C@@H](n2cnc3c2N=CNC[C@H]3O)[C@H](O)[C@@H]1O [COFORMYCIN] | 15 |
| O=C(CCCN1CCC(n2c(O)nc3ccccc32)CC1)c1ccc(F)cc1 [BENPERIDOL] | 12.2 |
| Nc1ncnc2c1ncn2[C@@H]1O[C@H](CO)C[C@H]1O [CORDYCEPIN] | 8.2 |
| CNC(=O)Oc1cccc2ccccc12 [CARBARIL] | 6.4 |
| Cc1ccc(F)cc1NC1=NCCN1 [FLUTONIDINE] | 11.4 |
| Cc1c(Cc2ccc(Cl)cc2)cnc2nc(N)nc(N)c12 | 13.2 |
| CN1CCN(C2=Nc3cc(Cl)ccc3Nc3ccccc32)CC1 [CLOZAPINE] | 12.3 |
| O=c1cccc2n1C[C@@H]1CNC[C@H]2C1 [CYTISINICLINE] | 12.1 |
| CC/C(=C(\c1ccccc1)c1ccc(OCCN(C)C)cc1)c1ccccc1 [TAMOXIFEN] | 12.3 |
| CC(=O)CC(=O)C(=O)O | 9.1 |
| N[C@@H](Cc1cc(I)c(Oc2cc(I)c(O)c(I)c2)c(I)c1)C(=O)O [LEVOTHYROXINE] | 10.3 |
| CN1[C@@H]2CC[C@H]1C[C@@H](OC(c1ccccc1)c1ccccc1)C2 [BENZTROPINE] | 12.6 |
| CCCCCc1ccc2nc(N)nc(N)c2c1C | 18.7 |
| FLUPENTIXOL | 11.5 |
| Nc1ccn([C@@H]2O[C@H](COP(=O)(O)O)[C@@H](O)[C@H]2O)c(=O)n1 | 5.9 |
| CC12CCC(CC1=O)C2(C)C (stereo not drawn) [CAMPHOR] | 11.4 |
| CCc1nc(N)nc(N)c1C12CC3CC(CC(C3)C1)C2 | 13.4 |
| CC(=O)O[C@]1(C(C)=O)CC[C@H]2[C@@H]3C[C@H](C)C4=CC(=O)CC[C@]4(C)[C@H]3CC[C@@]21C [MEDROXYPROGESTERONE ACETATE] | 10.2 |
| N/C=C(\OP(=O)(O)O)C(=O)O | 10.5 |
| CC(C)(C)NC[C@H](O)COc1nsnc1N1CCOCC1 [TIMOLOL] | 13 |
| O=C(CCCN1CCC2(CC1)C(=O)NCN2c1ccccc1)c1ccc(F)cc1 [SPIPERONE] | 14 |

| Molecule | Binding energy [kcal/mol] |
| --- | --- |
| C=C(C)[C@@H]1[C@H]2OC(=O)[C@@H]1[C@]1(O)C[C@H]3O[C@]34C(=O)O[C@H]2[C@]14C [PICROTOXININ] | 8.7 |
| Cl[C@H]1[C@H](Cl)[C@@H](Cl)[C@@H](Cl)[C@H](Cl)[C@H]1Cl [LINDANE] | 6.1 |
| O=c1[nH]c2ccccc2n1C1CCN(CCCC(c2ccc(F)cc2)c2ccc(F)cc2)CC1 [PIMOZIDE] | 12.8 |
| CCC(=O)C1(c2cccc(O)c2)CCN(C)CC1 [KETOBEMIDONE] | 10.8 |
| O=C(O)Cc1cc(I)c(Oc2ccc(O)c(I)c2)c(I)c1 [TIRATRICOL] | 9.3 |
| COc1cc(CCN)cc(OC)c1OC [MESCALINE] | 7.1 |
| CN(C)CCC(c1ccc(Cl)cc1)c1ccccn1 (stereo not drawn) [CHLORPHENIRAMINE] | 12.8 |
| CCC(C)CN (stereo not drawn) | 2.8 |
| CN1CCC[C@H]1c1cccnc1 [NICOTINE] | 11.2 |
| NC1(C(=O)O)CCCC1 [CYCLOLEUCINE] | 4.9 |
| Cc1ccc(N(CC2=NCCN2)c2cccc(O)c2)cc1 [PHENTOLAMINE] | 11.9 |
| COC(=O)C1=CCCN(C)C1 [ARECOLINE] | 7.2 |
| CO[C@]12CC[C@@]3(C[C@@H]1[C@](C)(O)C(C)(C)C)[C@H]1Cc4ccc(O)c5c4[C@@]3(CCN1CC1CC1)[C@H]2O5 [BUPRENORPHINE] | 13.4 |
| ClC1=C(Cl)[C@]2(Cl)[C@@H]3[C@@H]4C[C@@H]([C@H]5O[C@@H]45)[C@@H]3[C@@]1(Cl)C2(Cl)Cl [DIELDRIN] | 6.1 |
| O=P(O)(O)O[C@H]1OC[C@@H](O)[C@H](O)[C@H]1O | 6.2 |
| N=C(N)NC(=O)Cc1c(Cl)cccc1Cl [GUANFACINE] | 11.9 |
| C[C@@H]1C[C@H]2[C@@H]3CCC4=CC(=O)C=C[C@]4(C)[C@@]3(F)[C@@H](O)C[C@]2(C)[C@@]1(O)C(=O)CO [DEXAMETHASONE] | 10.9 |
| O=C1CC(=O)N([C@@H]2O[C@H](COP(=O)(O)O)[C@@H](O)[C@H]2O)C(=O)N1 | 15.1 |
| O=C(O)CC(O)(CC(=O)O)C(=O)O [CITRIC ACID] | 5 |
| CN1[C@@H]2CC[C@H]1C[C@@H](OC(=O)C(CO)c1ccccc1)C2 (stereo partly drawn) [ATROPINE] | 12.8 |
| C[N+](C)(C)CCOC(N)=O.[Cl-] [CARBACHOL] | 10.7 |
| c1ccc2c(CC3=NCCN3)cccc2c1 [NAPHAZOLINE] | 11.9 |
| CN1[C@@H]2C[C@@H](OC(=O)[C@H](CO)c3ccccc3)C[C@H]1[C@@H]1O[C@@H]12 [SCOPOLAMINE] | 12.9 |
| O=P(O)(O)C#CCCO | 3.4 |

| Molecule | Binding energy [kcal/mol] |
| --- | --- |
| N=C(N)N/N=C/c1c(Cl)cccc1Cl [GUANABENZ] | 12.3 |
| NC(CO)Cc1ccccc1 (stereo not drawn) | 7.1 |
| CCC1(CC)C(=O)NC(=O)N(C)C1=O [METHARBITAL] | 6.8 |
| C[C@]12C[C@H](O)[C@H]3[C@@H](CCC4=CC(=O)CC[C@@]43C)[C@@H]1CC[C@@H]2C(=O)CO [CORTICOSTERONE] | 11.6 |
| COC1C2CCN(CC3CC3)C1Cc1ccc(O)cc12 (stereo not drawn) | 12.2 |
| COc1ccc(CCN2CCC(Nc3nc4ccccc4n3Cc3ccc(F)cc3)CC2)cc1 [ASTEMIZOLE] | 11.3 |
| O=c1[nH]c(=O)c2c[nH]nc2[nH]1 [OXYPURINOL] | 12.6 |
| O=P(O)(O)/C=C/CCO | 4.1 |
| CC(C(=O)O)c1ccc(-c2ccccc2)c(F)c1 (stereo not drawn) [FLURBIPROFEN] | 9.1 |
| CN1C[C@H](CNC(=O)OCc2ccccc2)C[C@@H]2c3cccc4c3c(cn4C)C[C@H]21 [METERGOLINE] | 13 |
| CC(N)Cc1ccccc1 (stereo not drawn) [AMPHETAMINE] | 6.8 |
| Cc1cccc(C)c1N=C1NCCCS1 [XYLAZINE] | 11.3 |
| C=C(C)[C@@H]1[C@H]2OC(=O)[C@@H]1[C@]1(O)[C@H]3O[C@H]3[C@]3(CO3)[C@]1(C)[C@@H]2O | 8.8 |
| CC[C@@H]1C(=O)OC[C@@H]1Cc1cncn1C [PILOCARPINE] | 10.1 |
| Cc1csc(Cl)c1NC1=NCCN1 [TIAMENIDINE] | 11.8 |
| CCC(=O)C(CC(C)N(C)C)(c1ccccc1)c1ccccc1 (stereo not drawn) [METHADONE] | 11.8 |
| CN1CCC(=C2c3ccccc3C=Cc3ccccc32)CC1 [CYPROHEPTADINE] | 12.8 |
| CCCCC[C@H](O)/C=C/[C@H]1[C@H](O)CC(=O)[C@@H]1CCCCCCC(=O)O [ALPROSTADIL] | 11.2 |
| Cc1cc(C(C)(C)C)c(O)c(C)c1CC1=NCCN1 [OXYMETAZOLINE] | 12.2 |
| O=C1NCN(c2ccccc2)C12CCN(CCCC(c1ccc(F)cc1)c1ccc(F)cc1)CC2 [FLUSPIRILENE] | 11.6 |
| O=P(O)(O)OC[C@H]1OC(O)(COP(=O)(O)O)[C@@H](O)[C@@H]1O (stereo partly drawn) [FOSFRUCTOSE] | 10.2 |

Source: ChEMBL document CHEMBL1122538, “Functional group contributions to drug-receptor interactions” (J Med Chem, 1984)
